`CC1(C)S[C@@H]2[C@H](NC(=O)[C@H](NC(=O)N3CCNC3=O)c3ccccc3)C(=O)N2[C@H]1C(=O)O` gave a solubility (mole fraction) (in THF, 278.15 K) of 0.00106, a solubility (mole fraction) (in THF, 283.15 K) of 0.00115 and a solubility (mole fraction) (in THF, 288.15 K) of 0.00131. It also gave a solubility (mole fraction) (in THF, 293.15 K) of 0.00149, a solubility (mole fraction) (in THF, 298.15 K) of 0.00164 and a solubility (mole fraction) (in THF, 303.15 K) of 0.00178. The solubility (mole fraction) (in THF, 308.15 K) was 0.00199, the solubility (mole fraction) (in THF, 313.15 K) was 0.00218 and the solubility (mole fraction) (in THF, 318.15 K) was 0.00243. It also gave a solubility (mole fraction) (in THF, 323.15 K) of 0.00276, a solubility (mole fraction) (in acetone, 278.15 K) of 0.000492 and a solubility (mole fraction) (in acetone, 283.15 K) of 0.000572. For the same molecule, the solubility (mole fraction) (in acetone, 288.15 K) was 0.000667, the solubility (mole fraction) (in acetone, 293.15 K) was 0.000823 and the solubility (mole fraction) (in acetone, 298.15 K) was 0.000919. For the same molecule, the solubility (mole fraction) (in acetone, 303.15 K) was 0.00112, the solubility (mole fraction) (in acetone, 308.15 K) was 0.00133 and the solubility (mole fraction) (in acetone, 313.15 K) was 0.00155. For the same molecule, the solubility (mole fraction) (in acetone, 318.15 K) was 0.00192, the solubility (mole fraction) (in acetone, 323.15 K) was 0.00223 and the solubility (mole fraction) (in acetonitrile, 278.15 K) was 0.000491. The solubility (mole fraction) (in acetonitrile, 283.15 K) was 0.000551, the solubility (mole fraction) (in acetonitrile, 288.15 K) was 0.000643 and the solubility (mole fraction) (in acetonitrile, 293.15 K) was 0.000757. It also gave a solubility (mole fraction) (in acetonitrile, 298.15 K) of 0.000836, a solubility (mole fraction) (in acetonitrile, 303.15 K) of 0.000934 and a solubility (mole fraction) (in acetonitrile, 308.15 K) of 0.00108. The solubility (mole fraction) (in acetonitrile, 313.15 K) was 0.00122, the solubility (mole fraction) (in acetonitrile, 318.15 K) was 0.00137 and the solubility (mole fraction) (in acetonitrile, 323.15 K) was 0.00156. The solubility (mole fraction) (in ethanol, 278.15 K) was 0.000687, the solubility (mole fraction) (in ethanol, 283.15 K) was 0.000805 and the solubility (mole fraction) (in ethanol, 288.15 K) was 0.000954. It also gave a solubility (mole fraction) (in ethanol, 293.15 K) of 0.00113, a solubility (mole fraction) (in ethanol, 298.15 K) of 0.00131 and a solubility (mole fraction) (in ethanol, 303.15 K) of 0.00165. For the same molecule, the solubility (mole fraction) (in ethanol, 308.15 K) was 0.00197, the solubility (mole fraction) (in ethanol, 313.15 K) was 0.00245 and the solubility (mole fraction) (in ethanol, 318.15 K) was 0.00296. The solubility (mole fraction) (in ethanol, 323.15 K) was 0.00368, the solubility (mole fraction) (in ethyl acetate, 278.15 K) was 0.000219 and the solubility (mole fraction) (in ethyl acetate, 283.15 K) was 0.000243. It also gave a solubility (mole fraction) (in ethyl acetate, 288.15 K) of 0.000287, a solubility (mole fraction) (in ethyl acetate, 293.15 K) of 0.000311 and a solubility (mole fraction) (in ethyl acetate, 298.15 K) of 0.000353. The solubility (mole fraction) (in ethyl acetate, 303.15 K) was 0.000411, the solubility (mole fraction) (in ethyl acetate, 308.15 K) was 0.000462 and the solubility (mole fraction) (in ethyl acetate, 313.15 K) was 0.000528. It also gave a solubility (mole fraction) (in ethyl acetate, 318.15 K) of 0.000613, a solubility (mole fraction) (in ethyl acetate, 323.15 K) of 0.000688 and a solubility (mole fraction) (in isopropanol, 278.15 K) of 9.02e-05. For the same molecule, the solubility (mole fraction) (in isopropanol, 283.15 K) was 0.000111, the solubility (mole fraction) (in isopropanol, 288.15 K) was 0.000132 and the solubility (mole fraction) (in isopropanol, 293.15 K) was 0.000162. It also gave a solubility (mole fraction) (in isopropanol, 298.15 K) of 0.000196, a solubility (mole fraction) (in isopropanol, 303.15 K) of 0.00024 and a solubility (mole fraction) (in isopropanol, 308.15 K) of 0.000289. For the same molecule, the solubility (mole fraction) (in isopropanol, 313.15 K) was 0.000376, the solubility (mole fraction) (in isopropanol, 318.15 K) was 0.000456 and the solubility (mole fraction) (in isopropanol, 323.15 K) was 0.000557. For the same molecule, the solubility (mole fraction) (in isopropyl acetate, 278.15 K) was 6.88e-05, the solubility (mole fraction) (in isopropyl acetate, 283.15 K) was 7.89e-05 and the solubility (mole fraction) (in isopropyl acetate, 288.15 K) was 9.25e-05. For the same molecule, the solubility (mole fraction) (in isopropyl acetate, 293.15 K) was 0.000102, the solubility (mole fraction) (in isopropyl acetate, 298.15 K) was 0.000116 and the solubility (mole fraction) (in isopropyl acetate, 303.15 K) was 0.00013. The solubility (mole fraction) (in isopropyl acetate, 308.15 K) was 0.000148, the solubility (mole fraction) (in isopropyl acetate, 313.15 K) was 0.00017 and the solubility (mole fraction) (in isopropyl acetate, 318.15 K) was 0.000192. It also gave a solubility (mole fraction) (in isopropyl acetate, 323.15 K) of 0.000219, a solubility (mole fraction) (in methanol, 278.15 K) of 0.000281 and a solubility (mole fraction) (in methanol, 283.15 K) of 0.00033. For the same molecule, the solubility (mole fraction) (in methanol, 288.15 K) was 0.000403, the solubility (mole fraction) (in methanol, 293.15 K) was 0.000478 and the solubility (mole fraction) (in methanol, 298.15 K) was 0.000602. It also gave a solubility (mole fraction) (in methanol, 303.15 K) of 0.000728, a solubility (mole fraction) (in methanol, 308.15 K) of 0.000948 and a solubility (mole fraction) (in methanol, 313.15 K) of 0.00115. The solubility (mole fraction) (in methanol, 318.15 K) was 0.00142, the solubility (mole fraction) (in methanol, 323.15 K) was 0.00178 and the solubility (mole fraction) (in methyl acetate, 278.15 K) was 0.00027. It also gave a solubility (mole fraction) (in methyl acetate, 283.15 K) of 0.000313, a solubility (mole fraction) (in methyl acetate, 288.15 K) of 0.000372 and a solubility (mole fraction) (in methyl acetate, 293.15 K) of 0.000463. It also gave a solubility (mole fraction) (in methyl acetate, 298.15 K) of 0.000565, a solubility (mole fraction) (in methyl acetate, 303.15 K) of 0.000651 and a solubility (mole fraction) (in methyl acetate, 308.15 K) of 0.000758. For the same molecule, the solubility (mole fraction) (in methyl acetate, 313.15 K) was 0.000921, the solubility (mole fraction) (in methyl acetate, 318.15 K) was 0.00107 and the solubility (mole fraction) (in methyl acetate, 323.15 K) was 0.0013.
